Experimental data published in publication PMC11012124, “Synthesis of Novel Triazine-Based Chalcones and 8,9-dihydro-7H-pyrimido[4,5-b][1,4]diazepines as Potential Leads in the Search of Anticancer, Antibacterial and Antifungal Agents” (International Journal of Molecular Sciences, 2024).

Columns and labels:
60 cancer cell lines = assay: NCI-60 one-dose screen (10 μM); format: cell-based; details: Homo sapiens; one dose of 10 μM, mean over 60 cancer cell lines; read-out: Mean Growth Percent (MGP)
Text: Additionally, the mean of the growth percentages (MGP) of each compound against all the 60 cancer cell lines is also reported, which is used as one of the selection criteria to continue with tests at five concentration doses.

CCRF-CEM = assay: cells; details: Homo sapiens, 48 h; for CC50: read-out: LC50
HL-60(TB) = assay: cells; details: Homo sapiens, HL-60, 48 h; for CC50: read-out: LC50
K-562 = assay: cells; details: Homo sapiens, K562, 48 h; for GI50: K-562, 48 h; for CC50: read-out: LC50
MOLT-4 = assay: cells; details: Homo sapiens, MOLT-4, 48 h; for CC50: read-out: LC50
RPMI-8226 = assay: cells; details: Homo sapiens, RPMI-8226, 48 h; for CC50: read-out: LC50
A549/ATCC = assay: cells; details: Homo sapiens, A549, 48 h; for CC50: read-out: LC50
EKVX = assay: cells; details: Homo sapiens, 48 h; for CC50: read-out: LC50
HOP-92 = assay: cells; details: Homo sapiens, HOP-92, 48 h; for CC50: read-out: LC50
NCI-H226 = assay: cells; details: Homo sapiens, NCI-H226, 48 h; for CC50: read-out: LC50
NCI-H23 = assay: cells; details: Homo sapiens, NCI-H23, 48 h
NCI-H460 = assay: cells; details: Homo sapiens, NCI-H460, 48 h; for CC50: read-out: LC50
HCC-2998 = assay: cells; details: Homo sapiens, HCC 2998, 48 h; for CC50: read-out: LC50
HCT-116 = assay: cells; details: Homo sapiens, HCT-116, 48 h; for CC50: read-out: LC50
SW-620 = assay: cells; details: Homo sapiens, SW-620, 48 h; for CC50: read-out: LC50
SF-539 = assay: cells; details: Homo sapiens, SF-539, 48 h; for CC50: read-out: LC50, SF-539, 48 h
LOX IMVI = assay: cells; details: Homo sapiens, 48 h; for CC50: read-out: LC50, LOX IMVI, 48 h
MALME-3M = assay: cells; details: Homo sapiens, 48 h
M14 = assay: cells; details: Homo sapiens, M14, 48 h; for CC50: read-out: LC50
MDA-MB-435 = assay: cells; details: Homo sapiens, MDA-MB-435, 48 h; for CC50: read-out: LC50
SK-MEL-28 = assay: cells; details: Homo sapiens, SK-MEL-28, 48 h; for CC50: read-out: LC50
UACC-257 = assay: cells; details: Homo sapiens, UACC-257, 48 h; for CC50: read-out: LC50
IGROV1 = assay: cells; details: Homo sapiens, IGROV-1, 48 h; for CC50: read-out: LC50
OVCAR-5 = assay: cells; details: Homo sapiens, OVCAR-5, 48 h; for CC50: read-out: LC50
OVCAR-8 = assay: cells; details: Homo sapiens, OVCAR-8, 48 h; for CC50: read-out: LC50
SK-OV-3 = assay: cells; details: Homo sapiens, SK-OV-3, 48 h; for CC50: read-out: LC50
A498 = assay: cells; details: Homo sapiens, A498, 48 h; for CC50: read-out: LC50
ACHN = assay: cells; details: Homo sapiens, 48 h; for CC50: read-out: LC50
RXF 393 = assay: cells; details: Homo sapiens, RXF 393, 48 h
SN12C = assay: cells; details: Homo sapiens, 48 h; for CC50: read-out: LC50
TK-10 = assay: cells; details: Homo sapiens, TK-10, 48 h; for CC50: read-out: LC50
PC-3 = assay: cells; details: Homo sapiens, PC-3, 48 h
MCF7 = assay: cells; details: Homo sapiens, MCF7, 48 h; for CC50: read-out: LC50
MDA-MB-231/ATCC = assay: cells; details: Homo sapiens, MDA-MB-231, 48 h; for CC50: read-out: LC50
HS 578T = assay: cells; details: Homo sapiens, 48 h; for CC50: read-out: LC50
BT-549 = assay: cells; details: Homo sapiens, BT-549, 48 h; for CC50: read-out: LC50
[1] = Hemolytic activity, spectrophotometric; format: cell-based, human; details: human, human red blood cells (huRBC), 5% hematocrit, 200 μg/mL, 37 °C
SNB-75 = assay: cells; details: Homo sapiens, SNB-75, 48 h

With `CN(C)c1nc(NCCNS(=O)(=O)c2ccc(C(=O)/C=C/c3ccc(Cl)cc3)cc2)nc(N2CCOCC2)n1` [23e] the activity at 10 µM (60 cancer cell lines) was 6.74%, the GI50 (CCRF-CEM) was 6.86 µM and the CC50 (CCRF-CEM) was greater than 100 µM. The GI50 (HL-60(TB)) was 14.7 µM, the CC50 (HL-60(TB)) was greater than 100 µM and the GI50 (K-562) was 3.71 µM. It also gave a CC50 (K-562) greater than 100 µM, a GI50 (MOLT-4) of 3.38 µM and a CC50 (MOLT-4) greater than 100 µM. The GI50 (RPMI-8226) was 2.55 µM, the CC50 (RPMI-8226) was greater than 100 µM and the GI50 (A549/ATCC) was 14.4 µM. It also gave a CC50 (A549/ATCC) of 56.4 µM, a GI50 (EKVX) of 14.8 µM and a CC50 (EKVX) of 55.7 µM. For the same molecule, the GI50 (HOP-92) was 15.1 µM, the CC50 (HOP-92) was 67.8 µM and the GI50 (NCI-H226) was 15.7 µM. For the same molecule, the CC50 (NCI-H226) was 73.8 µM, the GI50 (NCI-H23) was 15.7 µM and the CC50 (NCI-H23; read-out: LC50) was 55.6 µM. It also gave a GI50 (NCI-H460) of 16.8 µM, a CC50 (NCI-H460) of 67.1 µM and a GI50 (HCC-2998) of 16.7 µM. It also gave a CC50 (HCC-2998) of 56.7 µM, a GI50 (HCT-116) of 11.7 µM and a CC50 (HCT-116) of 50.7 µM. It also gave a GI50 (SW-620) of 8.46 µM, a CC50 (SW-620) of 50.2 µM and a GI50 (SF-539) of 14.7 µM. The CC50 (SF-539) was 52.9 µM, the GI50 (LOX IMVI) was 1.71 µM and the CC50 (LOX IMVI) was 6.13 µM. It also gave a GI50 (MALME-3M) of 15.1 µM, a CC50 (MALME-3M; read-out: LC50) of 54.2 µM and a GI50 (M14) of 14.1 µM. For the same molecule, the CC50 (M14) was 56.9 µM, the GI50 (MDA-MB-435) was 12.8 µM and the CC50 (MDA-MB-435) was 55.3 µM. It also gave a GI50 (SK-MEL-28) of 15.5 µM, a CC50 (SK-MEL-28) of 53.9 µM and a GI50 (UACC-257) of 16.2 µM. It also gave a CC50 (UACC-257) of 55.7 µM, a GI50 (IGROV1) of 3.08 µM and a CC50 (IGROV1) of 36.8 µM. It also gave a GI50 (OVCAR-5) of 15 µM, a CC50 (OVCAR-5) of 53.9 µM and a GI50 (OVCAR-8) of 14.8 µM. It also gave a CC50 (OVCAR-8) of 54.5 µM, a GI50 (SK-OV-3) of 15.3 µM and a CC50 (SK-OV-3) of 59.5 µM. The GI50 (A498) was 12.4 µM, the CC50 (A498) was 50.8 µM and the GI50 (ACHN) was 13.5 µM. It also gave a CC50 (ACHN) of 51.3 µM, a GI50 (RXF 393) of 12.8 µM and a CC50 (RXF 393; read-out: LC50) of 57.1 µM. The GI50 (SN12C) was 14.4 µM, the CC50 (SN12C) was 53.8 µM and the GI50 (TK-10) was 15.8 µM. The CC50 (TK-10) was 54.7 µM, the GI50 (PC-3) was 13 µM and the CC50 (PC-3; read-out: LC50) was 67 µM. It also gave a GI50 (MCF7) of 2.37 µM, a CC50 (MCF7) of 34.6 µM and a GI50 (MDA-MB-231/ATCC) of 13.3 µM. For the same molecule, the CC50 (MDA-MB-231/ATCC) was 52.7 µM, the GI50 (HS 578T) was 15.8 µM and the CC50 (HS 578T) was greater than 100 µM. The GI50 (BT-549) was 15.3 µM and the CC50 (BT-549) was 56 µM.
`Nc1nc(N)c2c(n1)NC(c1ccccc1)CC(c1ccc(Nc3nc(NCCO)nc(Nc4ccc(Cl)cc4)n3)cc1)=N2` (centres unmarked) [33a] gave an activity at 10 µM (60 cancer cell lines) of 25.3%, a hemolysis at 24 h, 200 µg/mL [1] of 8% and a GI50 (CCRF-CEM) of 0.95 µM. The CC50 (CCRF-CEM) was greater than 100 µM, the GI50 (HL-60(TB)) was 0.32 µM and the CC50 (HL-60(TB)) was greater than 100 µM. The GI50 (K-562) was 1.01 µM, the CC50 (K-562) was greater than 100 µM and the GI50 (MOLT-4) was less than 0.01 µM. For the same molecule, the CC50 (MOLT-4) was greater than 100 µM, the GI50 (RPMI-8226) was 1.38 µM and the CC50 (RPMI-8226) was greater than 100 µM. It also gave a GI50 (A549/ATCC) of 2.84 µM, a CC50 (A549/ATCC) greater than 100 µM and a GI50 (EKVX) of 1.64 µM. The CC50 (EKVX) was 6.12 µM, the GI50 (HOP-92) was 1.42 µM and the CC50 (HOP-92) was 6.74 µM. It also gave a GI50 (NCI-H226) of 11.5 µM, a CC50 (NCI-H226) of 85 µM and a GI50 (NCI-H460) of 1.85 µM. For the same molecule, the CC50 (NCI-H460) was 6.51 µM, the GI50 (HCC-2998) was 1.68 µM and the CC50 (HCC-2998) was 5.72 µM. It also gave a GI50 (HCT-116) of 1.51 µM, a CC50 (HCT-116) of 5.33 µM and a GI50 (SW-620) of 1.87 µM. The CC50 (SW-620) was 6.48 µM, the GI50 (SF-539) was 1.6 µM and the CC50 (SF-539) was 5.85 µM. For the same molecule, the GI50 (SNB-75) was 1.56 µM, the CC50 (SNB-75; read-out: LC50) was 6.29 µM and the GI50 (LOX IMVI) was 1.54 µM. It also gave a CC50 (LOX IMVI) of 5.66 µM, a GI50 (MALME-3M) of 1.76 µM and a GI50 (M14) of 1.84 µM. For the same molecule, the CC50 (M14) was 6.1 µM, the GI50 (MDA-MB-435) was 1.74 µM and the CC50 (MDA-MB-435) was 5.78 µM. For the same molecule, the GI50 (SK-MEL-28) was 1.73 µM, the CC50 (SK-MEL-28) was 5.64 µM and the GI50 (UACC-257) was 1.9 µM. For the same molecule, the CC50 (UACC-257) was 6.43 µM, the GI50 (IGROV1) was 1.56 µM and the CC50 (IGROV1) was 6.29 µM. For the same molecule, the GI50 (OVCAR-5) was 1.94 µM, the CC50 (OVCAR-5) was 7.25 µM and the GI50 (OVCAR-8) was 1.46 µM. It also gave a CC50 (OVCAR-8) of 6.59 µM, a GI50 (SK-OV-3) of 17.7 µM and a CC50 (SK-OV-3) of 57.9 µM. For the same molecule, the GI50 (A498) was 1.54 µM, the CC50 (A498) was 5.96 µM and the GI50 (ACHN) was 1.95 µM. It also gave a CC50 (ACHN) of 9.76 µM, a GI50 (RXF 393) of 1.63 µM and a GI50 (SN12C) of 1.74 µM. It also gave a CC50 (SN12C) of 7.2 µM, a GI50 (TK-10) of 2.09 µM and a CC50 (TK-10) of 7.16 µM. The GI50 (PC-3) was 1.59 µM, the GI50 (MCF7) was 1.51 µM and the CC50 (MCF7) was 6.1 µM. It also gave a GI50 (MDA-MB-231/ATCC) of 1.75 µM, a CC50 (MDA-MB-231/ATCC) of 6.94 µM and a GI50 (HS 578T) of 1.98 µM. It also gave a CC50 (HS 578T) greater than 100 µM, a GI50 (BT-549) of 1.77 µM and a CC50 (BT-549) of 5.81 µM.
